Assay results published in US8932590B2, “Method of adsorbing transforming growth factor β” (TORAY Industries, Inc., priority 2002, dated 2015).
Counter-ions that a name gives are not always drawn.

Key:
[1] = test system: tumor; assay: Combined treatment of anticancer agent and extracorporeal perfusion: tumor volume; assay type: in vivo, rat; settings: anticancer agent administered, no extracorporeal perfusion
Method: The dimensions of the tumor region of a rat were measured using micrometer calipers. The longest diameter of the tumor was defined as the major axis, and a diameter of the tumor passing through the midpoint of the major axis in a direction perpendicular to the major axis was defined as the minor axis. The tumor volume was defined according to the following equation: Tumor Volume=(Major Axis)×(Minor Axis)×(Minor Axis)×0.5[Adsorbent for TGF β and Immunosuppressive Acidic Protein] […]
One week after the inoculation of cancer cells (rat body weight: 400 to 430 g), 0.6 mg of gemcitabine hydrochloride was injected in the vicinity of the tumor. The gemcitabine hydrochloride used herein was prepared by dissolving an injection preparation thereof (available from Eli Lilly Japan K.K.) in physiological saline to yield a 20 mg/mL solution. […]
Six rats were treated, and the tumor volumes after the inoculation of cancer cells were determined. The results in Comparative Examples 15 to 20, in which the anticancer agent was administered but the extracorporeal perfusion treatment was not carried out, are shown in Table 5.

[2] = test system: tumor; assay: Visual observation of tumor metastasis; assay type: in vivo, rat; settings: rats dissected 35 days after the extracorporeal perfusion, region other than beneath the back skin
Description: The test procedures of Examples 10 to 15 and Comparative Examples 11 to 22 were repeated, except for using three other rats (Examples 16 to 18, and Comparative Examples 21 to 26). The metastasis of the tumor to a region other than beneath the back skin to which the tumor was inoculated was visually observed (Table 6). The rats were dissected 35 days after the extracorporeal perfusion, and the tumor was observed. As a result, the metastasis was hardly observed in cases in which the extracorporeal perfusion treatment was carried out two days into the administration of gemcitabine hydrochloride.

Q: How did the Tumor volume ([1]; 14 days after inoculation of cancer cells) turn out when `Nc1ccn([C@@H]2O[C@H](CO)[C@@H](O)C2(F)F)c(=O)n1` [Comparative Example 15, gemcitabine hydrochloride] was run?
A: The Tumor volume was less than 0.06 mL.

Q: What about the Tumor volume ([1]; 21 days after inoculation of cancer cells, hydrochloride) of the same compound?
A: Its Tumor volume is 4.3 mL.

Q: What about the Tumor volume ([1]; 21 days after inoculation of cancer cells, listed as Comparative Example 16, hydrochloride) of the same compound?
A: Its Tumor volume is 7.9 mL.

Q: What about the Tumor volume ([1]; 21 days after inoculation of cancer cells, listed as Comparative Example 17, hydrochloride) of the same compound?
A: The Tumor volume was 6.6 mL.

Q: What about the Tumor volume ([1]; 21 days after inoculation of cancer cells, listed as Comparative Example 18, hydrochloride) of the same compound?
A: The Tumor volume was 7.4 mL.

Q: What about the Tumor volume ([1]; 21 days after inoculation of cancer cells, listed as Comparative Example 19, hydrochloride) of the same compound?
A: The Tumor volume was 7.0 mL.

Q: What about the Tumor volume ([1]; 21 days after inoculation of cancer cells, listed as Comparative Example 20, hydrochloride) of the same compound?
A: The Tumor volume was 4.5 mL.

Q: What about the Tumor volume ([1]; 28 days after inoculation of cancer cells, hydrochloride) of the same compound?
A: Its Tumor volume is 26 mL.

Q: And the Tumor volume ([1]; 28 days after inoculation of cancer cells, listed as Comparative Example 16, hydrochloride)?
A: Its Tumor volume is 41 mL.

Q: And the Tumor volume ([1]; 28 days after inoculation of cancer cells, listed as Comparative Example 17, hydrochloride)?
A: Its Tumor volume is 24 mL.

Q: And the Tumor volume ([1]; 28 days after inoculation of cancer cells, listed as Comparative Example 18, hydrochloride)?
A: Its Tumor volume is 35 mL.

Q: And the Tumor volume ([1]; 28 days after inoculation of cancer cells, listed as Comparative Example 19, hydrochloride)?
A: Its Tumor volume is 30 mL.

Q: And the Tumor volume ([1]; 28 days after inoculation of cancer cells, listed as Comparative Example 20, hydrochloride)?
A: The Tumor volume was 25 mL.

Q: What about the Tumor volume ([1]; 35 days after inoculation of cancer cells, hydrochloride) of the same compound?
A: Its Tumor volume is 41 mL.

Q: What about the Tumor volume ([1]; 35 days after inoculation of cancer cells, listed as Comparative Example 16, hydrochloride) of the same compound?
A: The Tumor volume was 59 mL.

Q: What about the Tumor volume ([1]; 35 days after inoculation of cancer cells, listed as Comparative Example 17, hydrochloride) of the same compound?
A: Its Tumor volume is 38 mL.

Q: And the Tumor volume ([1]; 35 days after inoculation of cancer cells, listed as Comparative Example 18, hydrochloride)?
A: Its Tumor volume is 54 mL.

Q: And the Tumor volume ([1]; 35 days after inoculation of cancer cells, listed as Comparative Example 19, hydrochloride)?
A: The Tumor volume was 47 mL.

Q: And the Tumor volume ([1]; 35 days after inoculation of cancer cells, listed as Comparative Example 20, hydrochloride)?
A: Its Tumor volume is 37 mL.

Q: And the “Metastasis (visual observation)” value ([2]; listed as Com. Ex. 25, hydrochloride)?
A: The value was “dermic micrometastasis (2 mm”.

Q: And the “Metastasis (visual observation)” value ([2]; listed as Com. Ex. 26, hydrochloride)?
A: Its value is “dermic micrometastasis (2 mm”.
